In brackets after ≈: the same amount, converted by molar mass.
Tests used:
[1] = Drug metabolism in rat liver microsomes after 10 mins; assay type: ADME, Microsome; conditions: read-out: Drug metabolism
[2] = Drug metabolism in human liver microsomes after 10 mins; assay type: ADME, Microsome; conditions: read-out: Drug metabolism
[3] = target: T1, Fatty-acid amide hydrolase 1 (Rattus norvegicus, UniProt P97612); test: Inhibition of rat FAAH using 7-amino-4-methylcoumarine amide as substrate preincubated for 1 hr by fluorimetry
T1 sequence (P97612 whole entry): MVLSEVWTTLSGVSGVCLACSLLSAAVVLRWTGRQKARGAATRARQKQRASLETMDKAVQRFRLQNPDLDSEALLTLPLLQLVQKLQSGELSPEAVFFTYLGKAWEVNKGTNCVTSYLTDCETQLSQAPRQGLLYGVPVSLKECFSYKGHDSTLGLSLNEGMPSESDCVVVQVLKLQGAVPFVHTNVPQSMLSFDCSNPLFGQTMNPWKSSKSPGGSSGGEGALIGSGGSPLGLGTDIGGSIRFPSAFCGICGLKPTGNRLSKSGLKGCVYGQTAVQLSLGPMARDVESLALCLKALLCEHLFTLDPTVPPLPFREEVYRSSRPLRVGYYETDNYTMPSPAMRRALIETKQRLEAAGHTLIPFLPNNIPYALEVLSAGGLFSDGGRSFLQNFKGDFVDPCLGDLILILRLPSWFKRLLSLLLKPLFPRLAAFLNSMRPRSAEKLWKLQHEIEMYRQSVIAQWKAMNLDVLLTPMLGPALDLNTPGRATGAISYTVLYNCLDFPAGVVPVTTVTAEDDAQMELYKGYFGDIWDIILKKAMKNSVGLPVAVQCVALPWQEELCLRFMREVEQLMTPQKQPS

[4] = target: Cannabinoid receptor 1 (Homo sapiens, UniProt P21554); test: Displacement of [3H]SR141716A from human CB1 receptor
Chain of Cannabinoid receptor 1 (P21554 whole entry): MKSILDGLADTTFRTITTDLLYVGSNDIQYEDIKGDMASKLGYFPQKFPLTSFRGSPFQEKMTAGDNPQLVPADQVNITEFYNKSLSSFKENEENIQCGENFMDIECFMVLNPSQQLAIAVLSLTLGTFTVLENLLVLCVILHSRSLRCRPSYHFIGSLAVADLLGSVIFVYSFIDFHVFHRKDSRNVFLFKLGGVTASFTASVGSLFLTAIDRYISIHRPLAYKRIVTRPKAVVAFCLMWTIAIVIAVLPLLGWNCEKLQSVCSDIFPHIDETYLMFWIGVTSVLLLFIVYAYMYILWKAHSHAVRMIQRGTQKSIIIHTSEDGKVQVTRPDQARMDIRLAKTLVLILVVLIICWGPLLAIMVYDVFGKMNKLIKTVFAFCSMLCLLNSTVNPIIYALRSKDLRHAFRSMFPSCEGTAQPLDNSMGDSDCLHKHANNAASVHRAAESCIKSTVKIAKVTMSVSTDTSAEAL

[5] = target: T2, Fatty-acid amide hydrolase 1 (Homo sapiens, UniProt O00519); test: Inhibition of human FAAH expressed in CHO cells using 7-amino-4-methylcoumarine amide as substrate preincubated for 1 hr by fluorimetry; assay type: cell-based
T2 sequence (O00519 whole entry): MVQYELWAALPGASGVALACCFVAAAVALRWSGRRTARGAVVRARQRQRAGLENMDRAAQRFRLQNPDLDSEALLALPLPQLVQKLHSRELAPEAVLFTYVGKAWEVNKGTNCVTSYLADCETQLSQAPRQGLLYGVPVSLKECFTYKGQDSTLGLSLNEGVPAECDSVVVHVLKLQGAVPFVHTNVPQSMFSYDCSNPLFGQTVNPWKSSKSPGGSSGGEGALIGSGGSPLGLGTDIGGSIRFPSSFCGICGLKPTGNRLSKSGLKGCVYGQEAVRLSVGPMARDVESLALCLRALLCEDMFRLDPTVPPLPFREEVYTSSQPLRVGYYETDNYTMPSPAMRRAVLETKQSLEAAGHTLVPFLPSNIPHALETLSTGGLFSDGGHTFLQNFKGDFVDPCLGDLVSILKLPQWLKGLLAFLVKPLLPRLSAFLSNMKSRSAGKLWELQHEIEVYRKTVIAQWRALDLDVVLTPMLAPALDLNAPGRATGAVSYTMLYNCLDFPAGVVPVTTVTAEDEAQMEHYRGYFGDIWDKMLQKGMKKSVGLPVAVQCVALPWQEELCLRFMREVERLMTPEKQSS

[6] = target: Cannabinoid receptor 2 (Homo sapiens, UniProt P34972); test: Displacement of [3H]CP55940 from human CB2 receptor
Chain of Cannabinoid receptor 2 (P34972 whole entry): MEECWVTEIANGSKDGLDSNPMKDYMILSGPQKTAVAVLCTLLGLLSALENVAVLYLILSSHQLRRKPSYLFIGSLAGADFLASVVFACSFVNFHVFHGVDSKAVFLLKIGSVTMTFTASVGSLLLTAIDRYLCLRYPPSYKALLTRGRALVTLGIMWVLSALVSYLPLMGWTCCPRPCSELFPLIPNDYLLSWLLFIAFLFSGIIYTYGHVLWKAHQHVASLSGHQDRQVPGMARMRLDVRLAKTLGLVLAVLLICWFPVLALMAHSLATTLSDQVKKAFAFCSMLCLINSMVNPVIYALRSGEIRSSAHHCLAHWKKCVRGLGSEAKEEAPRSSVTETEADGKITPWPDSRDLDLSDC

[7] = target: Cytochrome P450 2C9 (Homo sapiens, UniProt P11712); test: Inhibition of CYP2C9; assay type: ADME
Chain of Cytochrome P450 2C9 (P11712 whole entry): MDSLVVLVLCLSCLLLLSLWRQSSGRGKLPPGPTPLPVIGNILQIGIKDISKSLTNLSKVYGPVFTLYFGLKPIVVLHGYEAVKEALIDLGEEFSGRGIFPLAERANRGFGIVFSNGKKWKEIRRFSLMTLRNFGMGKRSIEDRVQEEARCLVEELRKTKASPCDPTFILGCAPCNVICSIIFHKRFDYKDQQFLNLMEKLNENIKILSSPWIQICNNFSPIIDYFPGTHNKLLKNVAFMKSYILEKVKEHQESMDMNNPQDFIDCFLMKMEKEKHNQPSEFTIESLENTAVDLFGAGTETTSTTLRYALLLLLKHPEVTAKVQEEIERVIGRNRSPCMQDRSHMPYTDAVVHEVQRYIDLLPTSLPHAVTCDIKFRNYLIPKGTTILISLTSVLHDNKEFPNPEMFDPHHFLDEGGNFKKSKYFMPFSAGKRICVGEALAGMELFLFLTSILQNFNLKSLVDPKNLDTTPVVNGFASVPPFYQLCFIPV

[8] = test system: Brain; test: Drug uptake in rat brain at 3 mg/kg, iv; assay type: ADME, organism-based; design: dose 3 mg/kg, route intravenous; conditions: in vivo
[9] = target: T3, Monoglyceride lipase (Homo sapiens, UniProt Q99685); test: Inhibition of human recombinant N-His6-tagged MAGL expressed in Escherichia coli using 7-Hydroxycoumarinyl arachidonate as substrate by fluorimetry
T3 sequence (Q99685 whole entry): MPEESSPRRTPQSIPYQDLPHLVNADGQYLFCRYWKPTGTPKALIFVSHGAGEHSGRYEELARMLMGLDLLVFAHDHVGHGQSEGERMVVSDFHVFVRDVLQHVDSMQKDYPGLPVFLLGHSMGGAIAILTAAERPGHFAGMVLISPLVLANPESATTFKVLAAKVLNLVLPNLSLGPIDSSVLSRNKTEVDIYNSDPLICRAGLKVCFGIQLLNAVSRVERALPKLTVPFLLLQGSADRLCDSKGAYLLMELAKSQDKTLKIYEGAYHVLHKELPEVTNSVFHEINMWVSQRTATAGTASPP

[10] = Aqueous solubility of the compound at pH 1; assay type: physicochemical; conditions: aqueous medium
[11] = test system: Brain; test: Drug uptake in rat brain at 0.3 mg/kg, iv; assay type: ADME, organism-based; design: dose 0.3 mg/kg, route intravenous; conditions: in vivo
[12] = target: T4, Cytochrome P450 1A2 (Homo sapiens, UniProt P05177); test: Inhibition of CYP1A2; assay type: ADME
T4 sequence (P05177 whole entry): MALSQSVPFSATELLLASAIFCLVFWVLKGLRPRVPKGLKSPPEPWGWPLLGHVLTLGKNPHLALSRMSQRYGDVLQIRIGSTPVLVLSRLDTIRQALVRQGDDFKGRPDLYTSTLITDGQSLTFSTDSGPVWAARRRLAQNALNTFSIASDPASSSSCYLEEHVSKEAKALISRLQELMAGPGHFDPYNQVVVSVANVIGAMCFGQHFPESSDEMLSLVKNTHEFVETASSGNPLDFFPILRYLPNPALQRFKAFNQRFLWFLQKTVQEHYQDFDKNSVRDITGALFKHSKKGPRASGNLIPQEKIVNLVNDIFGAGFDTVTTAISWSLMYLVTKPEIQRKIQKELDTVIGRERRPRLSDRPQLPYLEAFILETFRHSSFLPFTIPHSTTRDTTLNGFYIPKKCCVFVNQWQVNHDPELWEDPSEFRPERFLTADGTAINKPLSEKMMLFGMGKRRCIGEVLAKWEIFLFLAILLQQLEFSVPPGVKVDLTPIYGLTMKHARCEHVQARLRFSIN

[13] = Cmax in rat at 4 mg/kg, po; assay type: ADME, organism-based; design: dose 4 mg/kg, route oral; conditions: in vivo
[14] = Plasma clearance in rat at 2 mg/kg, iv; assay type: ADME, organism-based; design: dose 2 mg/kg, route intravenous
[15] = test system: Rattus norvegicus; test: Inhibition of FAAH in rat assessed as AEA level in brain at 0.3 mg/kg, iv administered 30 mins prior to anandamide loading measured after 30 mins relative to vehicle treated control; assay type: functional
[16] = Aqueous solubility of the compound at pH 6.8; assay type: physicochemical; conditions: aqueous medium
[17] = test system: Plasma; test: Plasma concentration in rat at 3 mg/kg, iv; assay type: ADME, organism-based; design: dose 3 mg/kg, route intravenous; conditions: in vivo
[18] = target: Cytochrome P450 2D6 (Homo sapiens, UniProt P10635); test: Inhibition of CYP2D6; assay type: ADME
Chain of Cytochrome P450 2D6 (P10635 whole entry): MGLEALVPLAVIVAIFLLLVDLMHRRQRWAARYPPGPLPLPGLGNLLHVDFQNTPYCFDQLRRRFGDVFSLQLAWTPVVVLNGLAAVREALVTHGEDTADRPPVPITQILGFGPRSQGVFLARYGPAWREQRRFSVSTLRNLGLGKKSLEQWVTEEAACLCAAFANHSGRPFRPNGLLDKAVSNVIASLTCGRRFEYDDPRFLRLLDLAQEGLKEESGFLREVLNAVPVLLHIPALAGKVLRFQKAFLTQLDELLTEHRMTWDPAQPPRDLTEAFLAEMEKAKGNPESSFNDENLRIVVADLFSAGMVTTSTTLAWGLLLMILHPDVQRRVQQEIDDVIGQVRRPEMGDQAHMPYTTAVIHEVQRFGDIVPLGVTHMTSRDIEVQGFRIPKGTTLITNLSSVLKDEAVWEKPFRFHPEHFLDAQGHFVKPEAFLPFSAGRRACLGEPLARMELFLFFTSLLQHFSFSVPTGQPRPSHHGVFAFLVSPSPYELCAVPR

[19] = target: Cytochrome P450 2C19 (Homo sapiens, UniProt P33261); test: Inhibition of CYP2C19; assay type: ADME
Chain of Cytochrome P450 2C19 (P33261 whole entry): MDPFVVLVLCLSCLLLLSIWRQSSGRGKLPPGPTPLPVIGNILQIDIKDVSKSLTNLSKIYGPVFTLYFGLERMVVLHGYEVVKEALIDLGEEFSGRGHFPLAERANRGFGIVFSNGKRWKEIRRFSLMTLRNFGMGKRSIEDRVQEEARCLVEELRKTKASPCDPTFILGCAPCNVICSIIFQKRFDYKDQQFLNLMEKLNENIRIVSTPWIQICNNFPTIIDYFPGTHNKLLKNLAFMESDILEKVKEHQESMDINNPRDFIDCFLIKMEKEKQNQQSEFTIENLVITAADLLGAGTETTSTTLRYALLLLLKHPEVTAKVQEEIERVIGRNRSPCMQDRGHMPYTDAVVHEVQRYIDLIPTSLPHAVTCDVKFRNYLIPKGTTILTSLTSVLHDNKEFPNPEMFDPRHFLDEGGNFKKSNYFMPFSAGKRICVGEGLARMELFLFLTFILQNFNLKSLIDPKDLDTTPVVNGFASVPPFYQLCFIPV

[20] = target: Cytochrome P450 3A4 (Homo sapiens, UniProt P08684); test: Inhibition of CYP3A4; assay type: ADME
Chain of Cytochrome P450 3A4 (P08684 whole entry): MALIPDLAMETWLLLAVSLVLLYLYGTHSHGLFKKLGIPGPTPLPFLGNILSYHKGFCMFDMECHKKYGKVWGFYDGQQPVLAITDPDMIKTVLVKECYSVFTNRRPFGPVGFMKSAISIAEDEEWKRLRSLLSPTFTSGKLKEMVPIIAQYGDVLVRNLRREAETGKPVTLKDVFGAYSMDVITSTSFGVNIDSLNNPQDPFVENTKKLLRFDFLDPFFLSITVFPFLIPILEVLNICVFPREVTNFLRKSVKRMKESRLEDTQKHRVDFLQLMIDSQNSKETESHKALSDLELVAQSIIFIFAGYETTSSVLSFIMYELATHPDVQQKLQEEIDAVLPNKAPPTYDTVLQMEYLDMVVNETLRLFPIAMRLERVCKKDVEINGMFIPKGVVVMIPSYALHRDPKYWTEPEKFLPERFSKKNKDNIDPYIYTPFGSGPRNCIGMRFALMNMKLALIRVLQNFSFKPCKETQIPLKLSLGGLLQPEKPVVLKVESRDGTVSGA

[21] = test system: Rattus norvegicus; test: Inhibition of FAAH in iv dosed rat assessed as AEA level in brain administered 30 mins prior to anandamide loading measured after 30 mins; assay type: functional, organism-based
[22] = test system: Rattus norvegicus; test: Inhibition of FAAH in rat assessed as AEA level in brain at 3 mg/kg, iv administered 30 mins prior to anandamide loading measured after 30 mins relative to vehicle treated control; assay type: functional
[23] = test system: Plasma; test: Plasma concentration in rat at 1 mg/kg, iv; assay type: ADME, organism-based; design: dose 1 mg/kg, route intravenous; conditions: in vivo
[24] = test system: Plasma; test: Plasma concentration in rat at 0.3 mg/kg, iv; assay type: ADME, organism-based; design: dose 0.3 mg/kg, route intravenous; conditions: in vivo
[25] = target: Voltage-gated inwardly rectifying potassium channel KCNH2 (Homo sapiens, UniProt Q12809); test: Inhibition of human ERG
Chain of Voltage-gated inwardly rectifying potassium channel KCNH2 (Q12809 whole entry): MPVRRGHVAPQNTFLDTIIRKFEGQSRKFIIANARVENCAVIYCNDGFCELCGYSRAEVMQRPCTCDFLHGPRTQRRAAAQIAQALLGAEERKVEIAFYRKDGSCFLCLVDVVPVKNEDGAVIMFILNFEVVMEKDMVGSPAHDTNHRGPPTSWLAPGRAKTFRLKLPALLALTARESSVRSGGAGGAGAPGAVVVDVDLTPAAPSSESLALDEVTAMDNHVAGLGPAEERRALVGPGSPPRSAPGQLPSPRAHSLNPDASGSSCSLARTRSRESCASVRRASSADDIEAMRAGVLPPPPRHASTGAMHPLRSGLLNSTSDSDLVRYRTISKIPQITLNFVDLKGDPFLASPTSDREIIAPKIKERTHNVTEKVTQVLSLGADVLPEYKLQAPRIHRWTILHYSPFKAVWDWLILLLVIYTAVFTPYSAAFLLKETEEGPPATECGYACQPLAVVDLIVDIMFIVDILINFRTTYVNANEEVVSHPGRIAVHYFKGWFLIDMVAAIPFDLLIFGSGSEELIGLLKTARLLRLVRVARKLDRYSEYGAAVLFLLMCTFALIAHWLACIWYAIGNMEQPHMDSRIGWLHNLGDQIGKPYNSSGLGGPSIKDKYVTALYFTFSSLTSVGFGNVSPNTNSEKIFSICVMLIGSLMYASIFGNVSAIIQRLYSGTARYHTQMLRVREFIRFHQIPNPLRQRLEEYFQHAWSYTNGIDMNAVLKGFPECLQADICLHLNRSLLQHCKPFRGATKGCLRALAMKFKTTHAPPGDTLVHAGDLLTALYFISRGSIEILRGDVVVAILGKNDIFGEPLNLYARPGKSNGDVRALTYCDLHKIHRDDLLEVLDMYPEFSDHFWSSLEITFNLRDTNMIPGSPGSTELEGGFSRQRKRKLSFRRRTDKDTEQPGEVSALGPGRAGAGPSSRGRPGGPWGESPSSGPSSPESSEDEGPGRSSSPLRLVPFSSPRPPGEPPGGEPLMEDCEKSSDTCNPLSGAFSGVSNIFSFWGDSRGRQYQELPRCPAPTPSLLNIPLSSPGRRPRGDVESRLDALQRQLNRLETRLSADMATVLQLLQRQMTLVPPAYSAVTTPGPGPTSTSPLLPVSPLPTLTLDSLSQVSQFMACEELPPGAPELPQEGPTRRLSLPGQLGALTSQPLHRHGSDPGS

[26] = Apparent permeability from apical to basolateral side of human Caco2 cells; assay type: ADME, cell-based; conditions: Caco-2
[27] = test system: Rattus norvegicus; test: Inhibition of FAAH in rat assessed as AEA level in brain at 1 mg/kg, iv administered 30 mins prior to anandamide loading measured after 30 mins relative to vehicle treated control; assay type: functional
[28] = Oral bioavailability in rat at 4 mg/kg; assay type: ADME, organism-based; conditions: in vivo
[29] = test system: Brain; test: Drug uptake in rat brain at 1 mg/kg, iv; assay type: ADME, organism-based; design: dose 1 mg/kg, route intravenous; conditions: in vivo
[30] = Volume of distribution in rat at 2 mg/kg, iv; assay type: ADME, organism-based; design: dose 2 mg/kg, route intravenous; conditions: in vivo
[31] = test system: Plasma; test: Ratio of plasma concentration in rat hepatic portal vein to plasma concentration in rat vena cava at 4 mg/kg, po; assay type: ADME, organism-based; design: dose 4 mg/kg, route oral; conditions: in vivo
[32] = Apparent permeability from basolateral to apical side of human Caco2 cells; assay type: ADME, cell-based; conditions: Caco-2

O=C(N1CCCCC1)N1CC(O[C@H](c2ccc(Cl)cc2)c2cccnc2Cl)C1
metabolised at 10 min [1]: > 99% | metabolised at 10 min [2]: 78% | IC50 [3]: 42 µM | Ki [4]: 0.007 µM | IC50 [5]: > 500 µM

CN(Cc1ccccc1)C(=O)N1CC(O[C@H](c2ccc(Cl)cc2)c2cccnc2Cl)C1
metabolised at 10 min [1]: 95% | metabolised at 10 min [2]: 92% | IC50 [3]: 4.53 µM | Ki [4]: 0.0015 µM | IC50 [5]: 40.8 µM | Ki [6]: 0.49 µM

O=C(N1CCCCC1)N1CC(O[C@@H](c2ccc(Cl)cc2)c2cccnc2Cl)C1
IC50 [7]: > 10 µM | Drug uptake [8]: 137 ng/g | IC50 [9]: 22.3 µM | solubility [10]: 158 µM (≈ 66.4 µg/mL) | Drug uptake [11]: 18 ng/g | IC50 [12]: > 10 µM | Cmax [13]: 5 ng/mL | clearance [14]: 47 mL/min/kg | fold change (FC) [15]: 1.7 | solubility [16]: 175 µM (≈ 73.6 µg/mL) | Cp [17]: 109 ng/g | IC50 [18]: > 10 µM | IC50 [19]: 2.05 µM | metabolised at 10 min [1]: 98% | IC50 [20]: > 10 µM | metabolised at 10 min [2]: 92% | IC50 [3]: 0.112 µM | inhibition [21]: Dose-dependent effect | fold change (FC) [22]: 5.1 | Cp [23]: 72 ng/g | Cp [24]: 8.5 ng/g | IC50 [25]: 30.8 µM | IC50 [5]: 0.973 µM | Papp A→B [26]: 31.7 ×10⁻⁶ cm/s | fold change (FC) [27]: 3.3 | bioavailability [28]: 2.4% | Drug uptake [29]: 79 ng/g | Vd [30]: 3.3 L/kg | Ratio [31]: 17 | Papp B→A [32]: 27.5 ×10⁻⁶ cm/s

CC1CCN(C(=O)N2CC(OC(c3ccc(Cl)cc3)c3cccnc3Cl)C2)CC1 (racemic)
metabolised at 10 min [1]: 95% | metabolised at 10 min [2]: 96% | IC50 [3]: 0.126 µM | IC50 [5]: 0.423 µM

O=C(N1CCCCC1)N1CC(OC(c2ccc(Cl)c(Cl)c2)c2cccnc2Cl)C1 (racemic)
metabolised at 10 min [1]: 99% | metabolised at 10 min [2]: 86% | IC50 [3]: 0.471 µM | IC50 [5]: 6.99 µM

CN(Cc1ccccc1)C(=O)N1CC(O[C@@H](c2ccc(Cl)cc2)c2cccnc2Cl)C1
metabolised at 10 min [1]: 98% | metabolised at 10 min [2]: 94% | IC50 [3]: 0.094 µM | Ki [4]: 0.249 µM | IC50 [5]: 0.887 µM | Ki [6]: 4.02 µM

O=C(N1CCN(Cc2ccccc2)CC1)N1CC(OC(c2ccc(Cl)cc2)c2cccnc2Cl)C1 (racemic)
metabolised at 10 min [1]: 74% | metabolised at 10 min [2]: 43% | IC50 [3]: 0.37 µM | IC50 [5]: 1.09 µM

O=C(N1CCCCC1)N1CC(OC(c2ccccc2)c2cccnc2)C1 (racemic)
metabolised at 10 min [1]: > 99% | metabolised at 10 min [2]: 32% | IC50 [3]: 3.64 µM | IC50 [5]: 82.9 µM

— ChEMBL document CHEMBL1949530, “Fatty acid amide hydrolase inhibitors. 3: tetra-substituted azetidine ureas with in vivo activity” (Bioorg Med Chem Lett, 2012)
